Results published in ChEMBL document CHEMBL4145659, “Discovery of a Series of Indole-2 Carboxamides as Selective Secreted Phospholipase A2 Type X (sPLA2-X) Inhibitors” (ACS Med Chem Lett, 2018).
One block for each compound: values may come before it. Calls of active or inactive are those of the source. The rule behind the calls is not given here.

Experiments:
[1] = biological target: T1, Group 10 secretory phospholipase A2 (Homo sapiens, UniProt O15496); assay: (§1) Inhibition of recombinant human sPLA2-10 expressed in Escherichia coli BL21(DE3) using 1-palmitoyl-2-oleoyl-sn-glycero-3-phosphocholine as substrate pretreated for 20 mins followed by substrate addition and measured after 60 mins
T1 sequence (O15496 whole entry): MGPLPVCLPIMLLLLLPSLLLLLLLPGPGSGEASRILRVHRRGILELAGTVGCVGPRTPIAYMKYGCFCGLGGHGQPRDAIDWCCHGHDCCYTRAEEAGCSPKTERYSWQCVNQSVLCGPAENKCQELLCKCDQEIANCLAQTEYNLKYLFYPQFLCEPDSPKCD

[2] = biological target: T1, Group 10 secretory phospholipase A2; assay: Inhibition of recombinant human sPLA2-10 expressed in Escherichia coli BL21(DE3) using HDL as substrate pretreated for 20 mins followed by substrate addition and measured after 60 mins
[3] = biological target: T2, Phospholipase A2, membrane associated (Homo sapiens, UniProt P14555); assay: Inhibition of recombinant human sPLA2-2A expressed in Escherichia coli BL21(DE3) using 1-palmitoyl-2-oleoyl-sn-glycero-3-phosphocholine as substrate pretreated for 20 mins followed by substrate addition and measured after 60 mins
T2 sequence (P14555 whole entry): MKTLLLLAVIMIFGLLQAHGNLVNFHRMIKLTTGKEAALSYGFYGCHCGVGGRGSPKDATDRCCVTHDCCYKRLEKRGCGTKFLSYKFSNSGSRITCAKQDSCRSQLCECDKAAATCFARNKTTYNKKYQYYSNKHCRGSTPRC

[4] = biological target: T3, Phospholipase A2 group V (Homo sapiens) (UniProt P39877); assay: Inhibition of recombinant human sPLA2-5 expressed in Escherichia coli BL21(DE3) at 30 uM using 1-palmitoyl-2-oleoyl-sn-glycero-3-phosphocholine as substrate pretreated for 20 mins followed by substrate addition and measured after 60 mins
T3 sequence (whole entry): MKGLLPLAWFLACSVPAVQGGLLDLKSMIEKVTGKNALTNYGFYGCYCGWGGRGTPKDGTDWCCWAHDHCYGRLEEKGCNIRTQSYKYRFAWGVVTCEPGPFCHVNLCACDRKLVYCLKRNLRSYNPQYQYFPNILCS

[5] = biological target: T4, Phospholipase A2, membrane associated (Homo sapiens) (UniProt P14555); assay: Inhibition of recombinant human sPLA2-2A expressed in Escherichia coli BL21(DE3) at 30 uM using 1-palmitoyl-2-oleoyl-sn-glycero-3-phosphocholine as substrate pretreated for 20 mins followed by substrate addition and measured after 60 mins
T4 sequence (whole entry): T2 sequence (P14555 whole entry)

[6] = biological target: T5, Group 10 secretory phospholipase A2 (Homo sapiens) (UniProt O15496); assay: as §1
T5 sequence (whole entry): T1 sequence (O15496 whole entry)

Phospholipase A2 group V = biological target: T6, Phospholipase A2 group V (Homo sapiens, UniProt P39877); assay: Inhibition of recombinant human sPLA2-5 expressed in Escherichia coli BL21(DE3) using 1-palmitoyl-2-oleoyl-sn-glycero-3-phosphocholine as substrate pretreated for 20 mins followed by substrate addition and measured after 60 mins
T6 sequence (P39877 whole entry): T3 sequence (whole entry)

[7] = biological target: T7, Group 10 secretory phospholipase A2 (Mus musculus, UniProt Q9QXX3); assay: Inhibition of mouse sPLA2-10 using 1-palmitoyl-2-oleoyl-sn-glycero-3-phosphocholine as substrate pretreated for 20 mins followed by substrate addition and measured after 60 mins
T7 sequence (Q9QXX3 whole entry): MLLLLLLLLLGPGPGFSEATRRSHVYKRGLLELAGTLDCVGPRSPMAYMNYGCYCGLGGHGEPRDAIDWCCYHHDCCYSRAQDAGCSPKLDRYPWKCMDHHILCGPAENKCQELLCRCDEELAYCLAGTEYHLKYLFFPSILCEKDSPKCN

[8] = Intrinsic clearance in human hepatocytes assessed per million cells at 1 uM measured after 2 to 60 mins; assay type: ADME, cell-based, Hepatocyte; settings: read-out: CLH
[9] = AUC in Beagle dog at 1 µmol/kg, iv by LC/MS analysis; settings: in vivo
[10] = Clearance in Beagle dog at 1 µmol/kg, iv by LC/MS analysis; settings: in vivo
[11] = AUC in Sprague-Dawley rat at 1 µmol/kg, iv by LC/MS analysis; settings: in vivo
[12] = Clearance in Sprague-Dawley rat at 1 µmol/kg, iv by LC/MS analysis; settings: in vivo
[13] = AUC in Sprague-Dawley rat at 4 µmol/kg, po administered via gavage by LC/MS analysis; settings: in vivo
[14] = Volume of distribution at steady state in Beagle dog at 1 µmol/kg, iv by LC/MS analysis; settings: in vivo, read-out: Vdss
[15] = Volume of distribution at steady state in Sprague-Dawley rat at 1 µmol/kg, iv by LC/MS analysis; settings: in vivo, read-out: Vdss
[16] = Oral bioavailability in Sprague-Dawley rat at 4 µmol/kg administered via gavage by LC/MS analysis; settings: in vivo

IC50 [1]: 7200 nM
SMILES: NC(=O)c1cc2ccccc2n1-c1cccc(C(=O)NCC(=O)O)c1

IC50 [1]: 29100 nM
SMILES: NC(=O)c1cc2ccccc2n1-c1cccc(C(=O)O)c1

IC50 [1]: 68 nM | IC50 [2]: 370 nM | IC50 [3]: 3600 nM | inhibition [4]: inactive
SMILES: NC(=O)c1cc2ccc(OC(F)F)cc2n1-c1cccc(CCC(=O)O)c1

IC50 [1]: 23600 nM
SMILES: NC(=O)c1cc2ccccc2n1-c1cccc(/C=C/C(=O)O)c1

IC50 [1]: 110 nM | IC50 [2]: 990 nM | IC50 [3]: 3900 nM | inhibition [4]: inactive
SMILES: N#Cc1ccc2cc(C(N)=O)n(-c3cccc(CCC(=O)O)c3)c2c1

IC50 [1]: 990 nM | inhibition [5]: inactive | inhibition [4]: inactive
SMILES: NC(=O)c1cc2ccccc2n1-c1cccc(CCC(=O)O)c1

IC50 [1]: 20700 nM
SMILES: NC(=O)c1cc2ccccc2n1Cc1cccc(C(=O)O)c1

IC50 [1]: 6900 nM
SMILES: NC(=O)c1cc2ccccc2n1-c1cccc(C(F)(F)F)c1

inhibition [6]: inactive
SMILES: NC(=O)c1cccn1-c1cccc(CCC(=O)O)c1

IC50 [1]: > 30000 nM
SMILES: NC(=O)CCc1cccc(-n2c(C(N)=O)cc3ccccc32)c1

inhibition [6]: inactive
SMILES: NC(=O)c1nc2ccccn2c1-c1cccc(CCC(=O)O)c1

inhibition [6]: inactive
SMILES: NC(=O)c1cc2ccsc2n1-c1cccc(CCC(=O)O)c1

IC50 [1]: 2700 nM
SMILES: Cc1ccc2c(c1)cc(C(N)=O)n2-c1cccc(CCC(=O)O)c1

inhibition [6]: inactive
SMILES: NC(=O)c1cc2sccc2n1-c1cccc(CCC(=O)O)c1

IC50 [1]: 830 nM
SMILES: Cc1cccc2c1cc(C(N)=O)n2-c1cccc(CCC(=O)O)c1

IC50 [1]: 93 nM | IC50 [2]: 740 nM | IC50 [3]: > 10000 nM | inhibition [4]: inactive
SMILES: NC(=O)c1cc2ccc(OCC(F)(F)F)cc2n1-c1cccc(CCC(=O)O)c1

IC50 [1]: 620 nM | inhibition [5]: inactive | inhibition [4]: inactive
SMILES: COc1ccc2cc(C(N)=O)n(-c3cccc(CCC(=O)O)c3)c2c1

IC50 [1]: 43 nM | IC50 [2]: 480 nM | IC50 [3]: 890 nM | IC50 (Phospholipase A2 group V): 3700 nM
SMILES: NC(=O)c1cc2ccc(C(F)(F)F)cc2n1-c1cccc(CCC(=O)O)c1

IC50 [1]: 160 nM | IC50 [2]: 1900 nM | IC50 [3]: 2300 nM | IC50 (Phospholipase A2 group V): > 10000 nM
SMILES: NC(=O)c1cc2ccc(C3CC3)cc2n1-c1cccc(CCC(=O)O)c1

IC50 [1]: 4800 nM
SMILES: CS(=O)(=O)NC(=O)CCc1cccc(-n2c(C(N)=O)cc3ccccc32)c1

IC50 [1]: 1900 nM | inhibition [5]: inactive | inhibition [4]: inactive
SMILES: Cc1cccc2cc(C(N)=O)n(-c3cccc(CCC(=O)O)c3)c12

IC50 [1]: 90 nM | IC50 [2]: 1100 nM | IC50 [3]: 5700 nM | inhibition [4]: inactive
SMILES: NC(=O)c1cc2ccc(Cl)cc2n1-c1cccc(CCC(=O)O)c1

IC50 [1]: > 30000 nM
SMILES: NC(=O)c1cc2ccccc2n1-c1ccccc1

IC50 [1]: 26 nM | IC50 [2]: 270 nM | IC50 [3]: 310 nM | IC50 (Phospholipase A2 group V): 2230 nM | IC50 [7]: 96 nM | hepatocyte CLint at 1 µM [8]: 1.7 µL/min/1e6 cells | AUC [9]: 8.78 µM·h | clearance [10]: 0.75 mL/min/kg | AUC [11]: 1.84 µM·h | clearance [12]: 9.1 mL/min/kg | AUC [13]: 11 µM·h | Vd [14]: 0.44 L/kg | Vd [15]: 2.54 L/kg | bioavailability [16]: 100%
SMILES: NC(=O)c1cc2ccc(OC(F)(F)F)cc2n1-c1cccc(CCC(=O)O)c1

inhibition [6]: inactive
SMILES: NC(=O)c1cc2cccnc2n1-c1cccc(CCC(=O)O)c1

IC50 [1]: 170 nM | IC50 [3]: 4400 nM | inhibition [4]: inactive
SMILES: CCc1ccc2cc(C(N)=O)n(-c3cccc(CCC(=O)O)c3)c2c1

IC50 [1]: 260 nM | inhibition [5]: inactive | inhibition [4]: inactive
SMILES: NC(=O)c1cc2ccc(F)cc2n1-c1cccc(CCC(=O)O)c1

IC50 [1]: 230 nM | inhibition [5]: inactive | inhibition [4]: inactive
SMILES: Cc1ccc2cc(C(N)=O)n(-c3cccc(CCC(=O)O)c3)c2c1

IC50 [1]: 2800 nM | inhibition [5]: inactive | inhibition [4]: inactive
SMILES: NC(=O)c1cc2ccc(CO)cc2n1-c1cccc(CCC(=O)O)c1

IC50 [1]: 26900 nM
SMILES: NC(=O)c1cc2ccccc2n1-c1cccc(OCC(=O)O)c1

SMILES: CCc1c(C(=O)C(N)=O)c2c(OCC(=O)O)cccc2n1Cc1ccccc1 [VARESPLADIB]
IC50 (Phospholipase A2 group V): 124 nM

IC50 [1]: 10300 nM
SMILES: NC(=O)c1cc2ccccc2n1-c1cccc(CC(=O)O)c1
